This is an account of results in ChEMBL document CHEMBL1121849, “Synthetic antagonists of in vivo antidiuretic and vasopressor responses to arginine-vasopressin” (J Med Chem, 1981).

Starred links: 1 amine or outer side, 2 acyl side, 3 side chain; linkers in the order of their positions; H or OH if unused. Positions of bridges follow the written chain, without caps; N, C: chain ends. Non-standard residues stand in square brackets, D forms with d. Residues, ends and D or L forms follow the SMILES beside them. *: point of attachment. X1 = O=C(CC1(S[*:2])CCCCC1)[*:1]; iPr = CC(C)*

Data set [1] concerns Rattus norvegicus. Briefly: Tested in vivo for antidiuretic potency injected intraperitoneally in rats under ethanol anesthesia. The class given is ADME, organism-based, Urine. As to conditions: ip.
Data set [2] deals with Rattus norvegicus. Nature of the data set: In vivo anti-vasopressor antagonistic activity expressed as negative logarithm of the effective dose divided by the estimated volume of distribution (67 mL/kg). As to conditions: read-out: pA2 (converted). It is filed as ADME, organism-based.
Data set [3] is described as follows: In vivo antidiuretic antagonistic activity expressed as negative logarithm of the effective dose divided by the estimated volume of distribution (67 mL/kg). The class given is ADME, organism-based. As to conditions: Urine; read-out: pA2 (converted).
Data set [4] relates to Rattus norvegicus. Briefly: Tested in vivo for anti-vasopressor potency injected intraperitoneally in phenoxybenzamine-treated rats under urethane anesthesia. It is filed as functional.

The compound `CCCOc1ccc(C[C@@H]2NC(=O)CC3(CCCCC3)SSC[C@@H](C(=O)N3CCC[C@H]3C(=O)N[C@@H](CCCN=C(N)N)C(=O)NCC(N)=O)NC(=O)[C@H](CC(N)=O)NC(=O)[C@H](C(C)C)NC(=O)[C@H](Cc3ccccc3)NC2=O)cc1` [listing 1 of 2 here] displayed an ED in the data set with Rattus norvegicus [1] of 3.5 nM/kg. The Kb is 6.03 nM with Rattus norvegicus [2] and 51.3 nM in data set [3].

With `CCCOc1ccc(C[C@@H]2NC(=O)CC3(CCCCC3)SSC[C@@H](C(=O)N3CCC[C@H]3C(=O)N[C@@H](CCCN=C(N)N)C(=O)NCC(N)=O)NC(=O)[C@H](CC(N)=O)NC(=O)[C@H](C(C)C)NC(=O)[C@H](Cc3ccccc3)NC2=O)cc1` [listing 2 of 2 here], the ED with Rattus norvegicus [4] stood at 0.4 nM/kg.

In the case of `CCCOc1ccc(C[C@@H]2NC(=O)CC3(CCCCC3)SSC[C@@H](C(=O)N3CCC[C@H]3C(=O)N[C@H](CCCN=C(N)N)C(=O)NCC(N)=O)NC(=O)[C@H](CC(N)=O)NC(=O)[C@H](C(C)C)NC(=O)[C@H](Cc3ccccc3)NC2=O)cc1` [listing 1 of 2 here], the ED in the data set on Rattus norvegicus [1] is 14 nM/kg. In addition, the Kb in the data set with Rattus norvegicus [2] was 13.8 nM; in data set [3] it was 214 nM.

As for `CCCOc1ccc(C[C@@H]2NC(=O)CC3(CCCCC3)SSC[C@@H](C(=O)N3CCC[C@H]3C(=O)N[C@H](CCCN=C(N)N)C(=O)NCC(N)=O)NC(=O)[C@H](CC(N)=O)NC(=O)[C@H](C(C)C)NC(=O)[C@H](Cc3ccccc3)NC2=O)cc1` [listing 2 of 2 here], the ED with Rattus norvegicus [4] was 1.1 nM/kg.

As to `CCOc1ccc(C[C@@H]2NC(=O)CC3(CCCCC3)SSC[C@@H](C(=O)N3CCC[C@H]3C(=O)N[C@@H](CCCN=C(N)N)C(=O)NCC(N)=O)NC(=O)[C@H](CC(N)=O)NC(=O)[C@H](C(C)C)NC(=O)[C@H](Cc3ccccc3)NC2=O)cc1` (Y(Et)FVNCPRG-NH2; linker N-5 via X1) [listing 1 of 2 here], the ED in the data set with Rattus norvegicus [1] stood at 1.9 nM/kg. Moreover, the values for the Kb (with Rattus norvegicus [2]; in data set [3]) were 6.92 nM and 26.9 nM, respectively.

In the data set with Rattus norvegicus [4], `CCOc1ccc(C[C@@H]2NC(=O)CC3(CCCCC3)SSC[C@@H](C(=O)N3CCC[C@H]3C(=O)N[C@@H](CCCN=C(N)N)C(=O)NCC(N)=O)NC(=O)[C@H](CC(N)=O)NC(=O)[C@H](C(C)C)NC(=O)[C@H](Cc3ccccc3)NC2=O)cc1` (Y(Et)FVNCPRG-NH2; linker N-5 via X1) [listing 2 of 2 here] had an ED of 0.49 nM/kg.

The compound `CCOc1ccc(C[C@@H]2NC(=O)CC3(CCCCC3)SSC[C@@H](C(=O)N3CCC[C@H]3C(=O)N[C@H](CCCN=C(N)N)C(=O)NCC(N)=O)NC(=O)[C@H](CC(N)=O)NC(=O)[C@H](C(C)C)NC(=O)[C@H](Cc3ccccc3)NC2=O)cc1` (Y(Et)FVNCP[dR]G-NH2; linker N-5 via X1) [listing 1 of 2 here] gave an ED in the data set with Rattus norvegicus [1] of 5.7 nM/kg. The Kb in data set [3] is 79.4 nM.

In the data set with Rattus norvegicus [4], `CCOc1ccc(C[C@@H]2NC(=O)CC3(CCCCC3)SSC[C@@H](C(=O)N3CCC[C@H]3C(=O)N[C@H](CCCN=C(N)N)C(=O)NCC(N)=O)NC(=O)[C@H](CC(N)=O)NC(=O)[C@H](C(C)C)NC(=O)[C@H](Cc3ccccc3)NC2=O)cc1` (Y(Et)FVNCP[dR]G-NH2; linker N-5 via X1) [listing 2 of 2 here] came in with an ED of 0.34 nM/kg.

Consider `COc1ccc(C[C@@H]2NC(=O)CC3(CCCCC3)SSC[C@@H](C(=O)N3CCC[C@H]3C(=O)N[C@@H](CCCN=C(N)N)C(=O)NCC(N)=O)NC(=O)[C@H](CC(N)=O)NC(=O)[C@H](C(C)C)NC(=O)[C@H](Cc3ccccc3)NC2=O)cc1` (Y(Me)FVNCPRG-NH2; linker N-5 via X1) [listing 1 of 2 here], for which, in the data set on Rattus norvegicus [1], the ED amounted to 3.1 nM/kg. Further, the Kb is 4.79 nM in the data set on Rattus norvegicus [2] and 44.7 nM in data set [3].

With `COc1ccc(C[C@@H]2NC(=O)CC3(CCCCC3)SSC[C@@H](C(=O)N3CCC[C@H]3C(=O)N[C@@H](CCCN=C(N)N)C(=O)NCC(N)=O)NC(=O)[C@H](CC(N)=O)NC(=O)[C@H](C(C)C)NC(=O)[C@H](Cc3ccccc3)NC2=O)cc1` (Y(Me)FVNCPRG-NH2; linker N-5 via X1) [listing 2 of 2 here], in the data set with Rattus norvegicus [4], the ED was 0.29 nM/kg.

In the data set with Rattus norvegicus [1], `COc1ccc(C[C@@H]2NC(=O)CC3(CCCCC3)SSC[C@@H](C(=O)N3CCC[C@H]3C(=O)N[C@H](CCCN=C(N)N)C(=O)NCC(N)=O)NC(=O)[C@H](CC(N)=O)NC(=O)[C@H](C(C)C)NC(=O)[C@H](Cc3ccccc3)NC2=O)cc1` (Y(Me)FVNCP[dR]G-NH2; linker N-5 via X1) [listing 1 of 2 here] displayed an ED of 15 nM/kg. For the same compound, the Kb is 3.63 nM with Rattus norvegicus [2] and 209 nM in data set [3].

With `COc1ccc(C[C@@H]2NC(=O)CC3(CCCCC3)SSC[C@@H](C(=O)N3CCC[C@H]3C(=O)N[C@H](CCCN=C(N)N)C(=O)NCC(N)=O)NC(=O)[C@H](CC(N)=O)NC(=O)[C@H](C(C)C)NC(=O)[C@H](Cc3ccccc3)NC2=O)cc1` (Y(Me)FVNCP[dR]G-NH2; linker N-5 via X1) [listing 2 of 2 here], the ED with Rattus norvegicus [4] was found to be 0.28 nM/kg.

On to `CC(C)Oc1ccc(C[C@@H]2NC(=O)CC3(CCCCC3)SSC[C@@H](C(=O)N3CCC[C@H]3C(=O)N[C@@H](CCCN=C(N)N)C(=O)NCC(N)=O)NC(=O)[C@H](CC(N)=O)NC(=O)[C@H](C(C)C)NC(=O)[C@H](Cc3ccccc3)NC2=O)cc1` (Y(iPr)FVNCPRG-NH2; linker N-5 via X1) [listing 1 of 2 here], for which the ED in the data set with Rattus norvegicus [1] was 3.6 nM/kg. The Kb in the data set on Rattus norvegicus [2] is 4.37 nM; in data set [3], 47.9 nM.

`CC(C)Oc1ccc(C[C@@H]2NC(=O)CC3(CCCCC3)SSC[C@@H](C(=O)N3CCC[C@H]3C(=O)N[C@@H](CCCN=C(N)N)C(=O)NCC(N)=O)NC(=O)[C@H](CC(N)=O)NC(=O)[C@H](C(C)C)NC(=O)[C@H](Cc3ccccc3)NC2=O)cc1` (Y(iPr)FVNCPRG-NH2; linker N-5 via X1) [listing 2 of 2 here] came in with an ED with Rattus norvegicus [4] of 0.31 nM/kg.

`CC(C)Oc1ccc(C[C@@H]2NC(=O)CC3(CCCCC3)SSC[C@@H](C(=O)N3CCC[C@H]3C(=O)N[C@H](CCCN=C(N)N)C(=O)NCC(N)=O)NC(=O)[C@H](CC(N)=O)NC(=O)[C@H](C(C)C)NC(=O)[C@H](Cc3ccccc3)NC2=O)cc1` (Y(iPr)FVNCP[dR]G-NH2; linker N-5 via X1) [listing 1 of 2 here]: in the data set with Rattus norvegicus [1], the ED was 8.5 nM/kg. Further, the Kb is 3.89 nM in the data set with Rattus norvegicus [2] and 132 nM in data set [3].

For the compound `CC(C)Oc1ccc(C[C@@H]2NC(=O)CC3(CCCCC3)SSC[C@@H](C(=O)N3CCC[C@H]3C(=O)N[C@H](CCCN=C(N)N)C(=O)NCC(N)=O)NC(=O)[C@H](CC(N)=O)NC(=O)[C@H](C(C)C)NC(=O)[C@H](Cc3ccccc3)NC2=O)cc1` (Y(iPr)FVNCP[dR]G-NH2; linker N-5 via X1) [listing 2 of 2 here], in the data set on Rattus norvegicus [4], the ED came out at 0.28 nM/kg.
